Entries after “also recorded” stand apart in the source; their conditions may differ. Counter-ions that a name gives are not always drawn.
Experiments:
CYP2C9 = target: T1, CYP2C9 (Homo sapiens, UniProt P11712); assay: CYP2C9 inhibition (HLM, diclofenac substrate); assay type: in vitro ADME; conditions: 10 μM, 10 min at 37° C.
T1 construct: tissue Eurofins Panlabs; host or cells: human liver microsomes
Procedure: (§1) Inhibition of Microsomal Cytochromes P450. The experiments were performed by Eurofins Panlabs (Redmond, Wash. 98052, USA). CYP1A inhibition (HLM, phenacetin substrate), CYP2B6 inhibition (HLM, bupropion substrate), CYP2C8 inhibition (HLM, paclitaxel substrate), CYP2C9 inhibition (HLM, diclofenac substrate), CYP2C19 inhibition (HLM, omeprazole substrate), CYP2D6 inhibition (HLM, dextromethorphan substrate), and CYP3A inhibition (HLM, midazolam and testosterone substrates) were tested. The test concentration was 10 μM. The incubation time was 10 min at 37° C. The detection method was by HPLC-MS/MS. The experiments were duplicated, and the % inhibition of the control values was averaged (FIG. 8).

CYP2C19 = target: T2, CYP2C19 (Homo sapiens, UniProt P33261); assay: CYP2C19 inhibition (HLM, omeprazole substrate); assay type: in vitro ADME; conditions: 10 μM, 10 min at 37° C.
T2 construct: tissue Eurofins Panlabs; host or cells: human liver microsomes
Procedure: as §1

CYP2B6 = target: T3, CYP2B6 (Homo sapiens, UniProt P20813); assay: CYP2B6 inhibition (HLM, bupropion substrate); assay type: in vitro ADME; conditions: 10 μM, 10 min at 37° C.
T3 construct: tissue Eurofins Panlabs; host or cells: human liver microsomes
T3 sequence (P20813 1-491): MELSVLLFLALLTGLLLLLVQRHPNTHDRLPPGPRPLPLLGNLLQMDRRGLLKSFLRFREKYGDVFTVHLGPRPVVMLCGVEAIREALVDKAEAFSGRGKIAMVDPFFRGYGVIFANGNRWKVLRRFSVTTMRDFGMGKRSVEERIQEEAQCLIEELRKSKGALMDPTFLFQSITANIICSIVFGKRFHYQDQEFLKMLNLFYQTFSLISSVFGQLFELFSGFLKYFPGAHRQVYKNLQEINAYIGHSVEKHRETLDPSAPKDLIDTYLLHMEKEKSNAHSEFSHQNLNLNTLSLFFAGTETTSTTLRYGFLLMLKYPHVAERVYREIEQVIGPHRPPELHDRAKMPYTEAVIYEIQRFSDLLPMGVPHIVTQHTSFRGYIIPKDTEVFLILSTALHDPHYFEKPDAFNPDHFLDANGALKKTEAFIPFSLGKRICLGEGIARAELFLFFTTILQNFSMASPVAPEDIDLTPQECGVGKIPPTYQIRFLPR
Procedure: as §1

[1] = Metabolic stability in human liver microsomes (LC-MS/MS); assay type: in vitro ADME; conditions: for 90 min
Procedure: This was accomplished by incubating 1 with the microsomes and monitoring its disappearance with time using LC-MS/MS. Terfenadine was run in similar condition as a positive control.

CYP2C8 = target: T4, CYP2C8 (Homo sapiens, UniProt P10632); assay: CYP2C8 inhibition (HLM, paclitaxel substrate); assay type: in vitro ADME; conditions: 10 μM, 10 min at 37° C.
T4 construct: tissue Eurofins Panlabs; host or cells: human liver microsomes
T4 sequence (P10632 1-490): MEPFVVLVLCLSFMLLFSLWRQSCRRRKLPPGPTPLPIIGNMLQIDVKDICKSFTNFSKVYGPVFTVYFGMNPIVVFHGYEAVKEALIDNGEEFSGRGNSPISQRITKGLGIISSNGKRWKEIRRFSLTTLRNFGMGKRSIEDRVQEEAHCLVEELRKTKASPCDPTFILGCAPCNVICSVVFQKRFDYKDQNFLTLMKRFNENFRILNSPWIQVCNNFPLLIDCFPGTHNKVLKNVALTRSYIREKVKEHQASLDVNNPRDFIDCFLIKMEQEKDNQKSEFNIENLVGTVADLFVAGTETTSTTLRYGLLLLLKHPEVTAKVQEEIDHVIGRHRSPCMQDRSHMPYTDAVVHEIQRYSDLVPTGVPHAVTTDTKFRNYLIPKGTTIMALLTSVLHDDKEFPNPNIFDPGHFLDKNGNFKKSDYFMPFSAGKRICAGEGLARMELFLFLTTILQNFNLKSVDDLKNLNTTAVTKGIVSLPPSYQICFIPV
Procedure: as §1

[2] = tested on: glucose metabolism in the hippocampus; assay: MicroPET imaging with 18FDG: cocaine-induced increases in glucose metabolism in freely moving rats; assay type: in vivo, rat; conditions: 18FDG microPET, statistical parametric map, p<0.00001, Hydrochloride
Text: In addition to labeled raclopride studies, [^18F]-2′-fluoro-2′-deoxy-D-glucose (^18FDG) and microPET were also used to examine the regional effects of 1 on cocaine-induced increases in glucose metabolism. ^18FDG is an analogue of glucose that gets taken up into neurons (or any cells in the human body) just like glucose. However, after ^18FDG is phosphorylated, the corresponding 6′-phosphate cannot be further metabolized in the glycolytic pathway and remains in cells. Consequently, human PET studies have used ^18 FDG for decades to map the brain. […] When a human or a rat receives a psychostimulant like cocaine, dopamine floods the synapse, causing post-synaptic neurons to fire frantically. Because this neuronal firing requires energy in the form of glucose, the result is that brain glucose metabolism increases in specific brain regions. The effect of 1 on cocaine-induced increases in glucose metabolism in freely moving rats was determined using statistical parametric mapping, in which all of the images from the cocaine-only animals were added together and then compared to the images obtained from the same animals that received 1 and cocaine. A statistical threshold (p<0.00001) was set, and a statistical parametric map, an image showing all the pixels that were statistically different between the two conditions, was generated and then overlaid on an MRI of the rat brain (FIG. 11). […]

CYP3A = CYP3A inhibition (HLM, midazolam and testosterone substrates); assay type: in vitro ADME, human; conditions: 10 μM, 10 min at 37° C.
Procedure: as §1

[3] = target: alanine aminotransferase (Ala-AT); assay: Inhibition of alanine aminotransferase; assay type: biochemical; conditions: reversible inhibition
Text: Inhibition of Alanine Aminotransferase by 1. The assay was identical to that with aspartate aminotransferase except L-alanine was used as the substrate and lactate dehydrogenase was the enzyme (FIG. 5).

T1 sequence (P11712 whole entry): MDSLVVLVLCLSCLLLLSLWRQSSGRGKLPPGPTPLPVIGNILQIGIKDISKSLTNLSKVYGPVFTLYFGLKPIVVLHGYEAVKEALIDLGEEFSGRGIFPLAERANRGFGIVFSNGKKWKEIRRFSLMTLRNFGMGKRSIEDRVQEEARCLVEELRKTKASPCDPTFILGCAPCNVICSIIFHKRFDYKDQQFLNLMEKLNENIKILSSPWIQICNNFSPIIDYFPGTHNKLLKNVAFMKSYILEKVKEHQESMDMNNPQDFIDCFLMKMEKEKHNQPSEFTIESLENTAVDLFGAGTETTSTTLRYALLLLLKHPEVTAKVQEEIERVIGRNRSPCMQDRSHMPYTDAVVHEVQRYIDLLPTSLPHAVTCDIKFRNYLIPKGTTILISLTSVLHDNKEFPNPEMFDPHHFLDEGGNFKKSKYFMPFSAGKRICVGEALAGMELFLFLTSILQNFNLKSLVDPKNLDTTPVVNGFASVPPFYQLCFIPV
T2 sequence (P33261 whole entry): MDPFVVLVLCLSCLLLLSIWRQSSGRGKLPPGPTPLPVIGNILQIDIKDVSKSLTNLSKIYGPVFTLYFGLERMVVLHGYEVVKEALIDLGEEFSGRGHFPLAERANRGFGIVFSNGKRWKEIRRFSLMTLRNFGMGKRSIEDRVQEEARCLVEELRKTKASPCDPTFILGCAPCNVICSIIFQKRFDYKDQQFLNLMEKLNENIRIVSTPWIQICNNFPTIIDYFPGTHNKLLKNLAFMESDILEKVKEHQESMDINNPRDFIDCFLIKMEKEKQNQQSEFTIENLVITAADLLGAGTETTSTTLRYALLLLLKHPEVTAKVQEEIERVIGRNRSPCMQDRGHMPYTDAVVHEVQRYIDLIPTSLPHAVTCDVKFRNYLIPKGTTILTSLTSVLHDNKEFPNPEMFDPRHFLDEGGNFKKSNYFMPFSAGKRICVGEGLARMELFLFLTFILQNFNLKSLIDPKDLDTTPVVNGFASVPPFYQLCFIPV

N[C@H]1C=C(C(=O)O)CC1=C(F)F [Compound 1, (S)-3-Amino-4-(difluoromethylenyl)cyclopent-1-ene-1-carboxylic acid Hydrochloride]
inhibition or induction of CYP 2C9 (CYP2C9): does not inhibit or induce | inhibition or induction of CYP 2C19 (CYP2C19): does not inhibit or induce | inhibition or induction of CYP 2B6 (CYP2B6): does not inhibit or induce | metabolic stability in HLM [1]: stable | inhibition or induction of CYP 2C8 (CYP2C8): does not inhibit or induce | cocaine-induced activation (metabolic demand) in the hippocampus [2]: attenuated; also recorded: all gone | inhibition or induction of CYP 3A (CYP3A): does not inhibit or induce | IC50 [3]: > 4 mM

— patent US9993449B2, “(S)-3-amino-4-(difluoromethylenyl)cyclopent-1-ene-1-carboxylic acid, and related compounds as GABA aminotransferase inactivators for the treatment of epilepsy, addiction and hepatocellular carcinoma” (NORTHWESTERN UNIVERSITY, priority 2015, dated 2018)
